Measured values taken from ChEMBL document CHEMBL5649169 (ChemMedChem, 2018).

Columns and labels:
[1] = target: Ephrin type-A receptor 7 (Homo sapiens, UniProt Q15375); assay: Inhibition of Nano Luc-fused full length C-terminal EPHA7 (unknown origin) expressed in HEK293T cells using NanoGlo as substrate incubated for 2 hrs in presence of tracer by NanoBRET assay; type: cell-based
[2] = target: Ephrin type-A receptor 2 (Homo sapiens, UniProt P29317); note: assay method not described here
[3] = target: Aminoacyl tRNA synthase complex-interacting multifunctional protein 2 (Homo sapiens) (UniProt Q13155); note: assay method not described here
[4] = target: Fructose-bisphosphate aldolase A (Homo sapiens) (UniProt P04075); note: assay method not described here
[5] = target: AP-1 complex subunit mu-1 (Homo sapiens) (UniProt Q9BXS5); note: assay method not described here
[6] = target: AP-2 complex subunit mu (Homo sapiens) (UniProt Q96CW1); note: assay method not described here
[7] = target: Hsp90 co-chaperone Cdc37 (Homo sapiens) (UniProt Q16543); note: assay method not described here
[8] = target: Clathrin light chain A (Homo sapiens) (UniProt P09496); note: assay method not described here
[9] = target: COP9 signalosome complex subunit 2 (Homo sapiens) (UniProt P61201); note: assay method not described here
[10] = target: Eukaryotic translation initiation factor 3 subunit E (Homo sapiens) (UniProt P60228); note: assay method not described here
[11] = organism: Homo sapiens; note: assay method not described here
[12] = target: 2,4-dienoyl-CoA reductase [(3E)-enoyl-CoA-producing], mitochondrial (Homo sapiens) (UniProt Q16698); note: assay method not described here
[13] = target: Cytoplasmic dynein 1 heavy chain 1 (Homo sapiens) (UniProt Q14204); note: assay method not described here
[14] = target: Bifunctional glutamate/proline--tRNA ligase (Homo sapiens) (UniProt P07814); note: assay method not described here
[15] = target: Protein FAM136A (Homo sapiens) (UniProt Q96C01); note: assay method not described here
[16] = target: CYFIP-related Rac1 interactor B (Homo sapiens) (UniProt Q9NUQ9); note: assay method not described here
[17] = target: Transcriptional repressor p66-alpha (Homo sapiens) (UniProt Q86YP4); note: assay method not described here
[18] = target: GPI-anchor transamidase component GPAA1 (Homo sapiens) (UniProt O43292); note: assay method not described here
[19] = target: Protein Aster-A (Homo sapiens) (UniProt Q96CP6); note: assay method not described here
[20] = target: Importin subunit beta-1 (Homo sapiens) (UniProt Q14974); note: assay method not described here
[21] = target: MAP/microtubule affinity-regulating kinase 3 (Homo sapiens) (UniProt P27448); note: assay method not described here
[22] = target: Midasin (Homo sapiens) (UniProt Q9NU22); note: assay method not described here
[23] = target: Small ribosomal subunit protein uS17m (Homo sapiens) (UniProt Q9Y2R5); note: assay method not described here
[24] = target: Serine/threonine-protein kinase pim-1 (Homo sapiens) (UniProt P11309); note: assay method not described here
[25] = target: Peroxiredoxin-1 (Homo sapiens) (UniProt Q06830); note: assay method not described here
[26] = organism: Homo sapiens; remark: listed apart in the source; note: assay method not described here
[27] = target: Pre-mRNA-processing factor 40 homolog A (Homo sapiens) (UniProt O75400); note: assay method not described here
[28] = target: Proteasome subunit alpha type-1 (Homo sapiens) (UniProt P25786); note: assay method not described here
[29] = target: Proteasome subunit alpha type-5 (Homo sapiens) (UniProt P28066); note: assay method not described here
[30] = target: Glycogen phosphorylase, brain form (Homo sapiens) (UniProt P11216); note: assay method not described here
[31] = target: Arginine--tRNA ligase, cytoplasmic (Homo sapiens) (UniProt P54136); note: assay method not described here
[32] = target: Aminopeptidase B (Homo sapiens) (UniProt Q9H4A4); note: assay method not described here
[33] = target: Large ribosomal subunit protein eL31 (Homo sapiens) (UniProt P62899); note: assay method not described here
[34] = target: Small ribosomal subunit protein eS7 (Homo sapiens) (UniProt P62081); note: assay method not described here
[35] = target: Signal peptidase complex catalytic subunit SEC11A (Homo sapiens) (UniProt P67812); note: assay method not described here
[36] = target: Protein transport protein Sec23A (Homo sapiens) (UniProt Q15436); note: assay method not described here
[37] = organism: Homo sapiens; remark: listed apart in the source; note: assay method not described here
[38] = target: Microtubule cross-linking factor 3 (Homo sapiens) (UniProt Q5TF21); note: assay method not described here
[39] = target: Spectrin beta chain, non-erythrocytic 1 (Homo sapiens) (UniProt Q01082); note: assay method not described here
[40] = target: Lupus La protein (Homo sapiens) (UniProt P05455); note: assay method not described here
[41] = target: Threonine--tRNA ligase 1, cytoplasmic (Homo sapiens) (UniProt P26639); note: assay method not described here
[42] = target: Testis-expressed protein 264 (Homo sapiens) (UniProt Q9Y6I9); note: assay method not described here
[43] = target: Nucleoprotein TPR (Homo sapiens) (UniProt P12270); note: assay method not described here
[44] = target: Splicing factor U2AF 35 kDa subunit (Homo sapiens) (UniProt Q01081); note: assay method not described here
[45] = target: Non-selective voltage-gated ion channel VDAC1 (Homo sapiens) (UniProt P21796); note: assay method not described here
[46] = target: Centromere/kinetochore protein zw10 homolog (Homo sapiens) (UniProt O43264); note: assay method not described here
Chain of Centromere/kinetochore protein zw10 homolog (Homo sapiens) (O43264 whole entry): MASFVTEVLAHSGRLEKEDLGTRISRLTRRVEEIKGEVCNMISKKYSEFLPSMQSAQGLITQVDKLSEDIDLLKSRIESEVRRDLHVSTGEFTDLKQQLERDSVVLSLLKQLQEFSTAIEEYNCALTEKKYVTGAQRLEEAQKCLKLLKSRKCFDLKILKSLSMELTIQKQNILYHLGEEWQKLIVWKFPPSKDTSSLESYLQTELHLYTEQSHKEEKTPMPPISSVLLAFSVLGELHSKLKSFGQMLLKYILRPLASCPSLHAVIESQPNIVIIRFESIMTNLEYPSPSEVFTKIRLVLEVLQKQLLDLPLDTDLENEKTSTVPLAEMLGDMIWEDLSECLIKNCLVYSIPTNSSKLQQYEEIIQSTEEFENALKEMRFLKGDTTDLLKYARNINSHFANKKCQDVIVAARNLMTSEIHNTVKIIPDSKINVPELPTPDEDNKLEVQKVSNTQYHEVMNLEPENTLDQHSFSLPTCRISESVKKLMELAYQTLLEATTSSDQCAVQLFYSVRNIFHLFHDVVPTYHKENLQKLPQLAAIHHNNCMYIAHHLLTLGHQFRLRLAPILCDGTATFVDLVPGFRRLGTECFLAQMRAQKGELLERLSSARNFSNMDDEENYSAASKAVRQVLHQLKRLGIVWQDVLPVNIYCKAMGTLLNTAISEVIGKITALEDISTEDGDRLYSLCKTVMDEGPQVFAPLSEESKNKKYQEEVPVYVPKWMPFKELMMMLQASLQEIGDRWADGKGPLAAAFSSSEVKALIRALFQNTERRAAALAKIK

Chain of Testis-expressed protein 264 (Homo sapiens) (Q9Y6I9 whole entry): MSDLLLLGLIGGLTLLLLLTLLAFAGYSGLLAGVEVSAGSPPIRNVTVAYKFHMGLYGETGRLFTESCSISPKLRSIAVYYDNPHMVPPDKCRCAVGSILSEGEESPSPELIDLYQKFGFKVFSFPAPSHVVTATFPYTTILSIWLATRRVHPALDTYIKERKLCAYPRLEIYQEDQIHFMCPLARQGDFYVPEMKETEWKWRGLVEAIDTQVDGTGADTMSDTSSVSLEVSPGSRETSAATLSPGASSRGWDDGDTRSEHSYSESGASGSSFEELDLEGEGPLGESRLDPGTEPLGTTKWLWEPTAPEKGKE
Chain of MAP/microtubule affinity-regulating kinase 3 (Homo sapiens) (P27448 whole entry, looked up): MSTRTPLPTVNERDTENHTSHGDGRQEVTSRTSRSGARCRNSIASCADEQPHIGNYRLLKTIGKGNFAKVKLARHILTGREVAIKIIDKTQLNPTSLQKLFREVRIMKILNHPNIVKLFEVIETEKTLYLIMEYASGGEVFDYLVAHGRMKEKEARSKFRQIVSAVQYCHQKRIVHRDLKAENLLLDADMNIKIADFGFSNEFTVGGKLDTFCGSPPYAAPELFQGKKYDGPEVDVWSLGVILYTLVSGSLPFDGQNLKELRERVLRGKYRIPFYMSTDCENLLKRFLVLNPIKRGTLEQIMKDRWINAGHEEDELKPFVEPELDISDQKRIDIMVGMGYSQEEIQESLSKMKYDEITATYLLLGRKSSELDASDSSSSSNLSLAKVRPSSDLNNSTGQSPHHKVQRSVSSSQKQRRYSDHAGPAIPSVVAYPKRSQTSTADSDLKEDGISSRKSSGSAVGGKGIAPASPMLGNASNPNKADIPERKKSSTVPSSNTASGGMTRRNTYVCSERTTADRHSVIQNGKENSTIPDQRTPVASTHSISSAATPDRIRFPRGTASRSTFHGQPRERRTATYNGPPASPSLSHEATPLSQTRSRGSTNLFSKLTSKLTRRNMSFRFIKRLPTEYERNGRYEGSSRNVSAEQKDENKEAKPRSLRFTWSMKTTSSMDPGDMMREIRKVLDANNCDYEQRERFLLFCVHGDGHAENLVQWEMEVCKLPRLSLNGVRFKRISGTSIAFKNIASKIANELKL
Chain of GPI-anchor transamidase component GPAA1 (Homo sapiens) (O43292 whole entry): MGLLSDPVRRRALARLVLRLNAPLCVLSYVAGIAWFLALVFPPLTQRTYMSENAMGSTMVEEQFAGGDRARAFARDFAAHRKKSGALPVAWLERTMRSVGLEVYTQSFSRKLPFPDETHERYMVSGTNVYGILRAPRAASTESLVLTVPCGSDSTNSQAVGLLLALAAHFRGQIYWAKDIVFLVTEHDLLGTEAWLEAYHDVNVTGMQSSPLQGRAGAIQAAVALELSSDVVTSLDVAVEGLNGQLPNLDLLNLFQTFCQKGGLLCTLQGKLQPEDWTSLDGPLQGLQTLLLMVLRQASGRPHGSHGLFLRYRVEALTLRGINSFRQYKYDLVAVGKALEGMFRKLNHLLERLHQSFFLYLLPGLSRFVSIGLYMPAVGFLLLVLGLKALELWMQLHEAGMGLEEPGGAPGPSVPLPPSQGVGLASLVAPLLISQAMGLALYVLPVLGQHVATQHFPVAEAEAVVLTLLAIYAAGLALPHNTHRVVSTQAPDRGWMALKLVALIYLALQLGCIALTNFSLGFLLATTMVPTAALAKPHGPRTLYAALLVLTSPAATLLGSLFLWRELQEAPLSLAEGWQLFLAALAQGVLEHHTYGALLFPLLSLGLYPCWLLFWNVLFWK
Chain of AP-2 complex subunit mu (Homo sapiens) (Q96CW1 whole entry, one chain of several): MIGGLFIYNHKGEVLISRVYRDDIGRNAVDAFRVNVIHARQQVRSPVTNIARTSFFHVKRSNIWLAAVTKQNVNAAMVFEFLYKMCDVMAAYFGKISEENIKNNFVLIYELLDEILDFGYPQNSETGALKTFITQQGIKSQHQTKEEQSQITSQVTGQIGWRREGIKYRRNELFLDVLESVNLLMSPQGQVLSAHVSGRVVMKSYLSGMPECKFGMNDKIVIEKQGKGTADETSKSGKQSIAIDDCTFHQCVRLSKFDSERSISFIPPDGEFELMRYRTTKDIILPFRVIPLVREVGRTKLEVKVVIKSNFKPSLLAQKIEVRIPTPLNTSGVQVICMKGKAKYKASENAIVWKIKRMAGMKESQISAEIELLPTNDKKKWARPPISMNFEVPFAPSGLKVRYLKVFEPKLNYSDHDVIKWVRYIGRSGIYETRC
Chain of Arginine--tRNA ligase, cytoplasmic (Homo sapiens) (P54136 whole entry): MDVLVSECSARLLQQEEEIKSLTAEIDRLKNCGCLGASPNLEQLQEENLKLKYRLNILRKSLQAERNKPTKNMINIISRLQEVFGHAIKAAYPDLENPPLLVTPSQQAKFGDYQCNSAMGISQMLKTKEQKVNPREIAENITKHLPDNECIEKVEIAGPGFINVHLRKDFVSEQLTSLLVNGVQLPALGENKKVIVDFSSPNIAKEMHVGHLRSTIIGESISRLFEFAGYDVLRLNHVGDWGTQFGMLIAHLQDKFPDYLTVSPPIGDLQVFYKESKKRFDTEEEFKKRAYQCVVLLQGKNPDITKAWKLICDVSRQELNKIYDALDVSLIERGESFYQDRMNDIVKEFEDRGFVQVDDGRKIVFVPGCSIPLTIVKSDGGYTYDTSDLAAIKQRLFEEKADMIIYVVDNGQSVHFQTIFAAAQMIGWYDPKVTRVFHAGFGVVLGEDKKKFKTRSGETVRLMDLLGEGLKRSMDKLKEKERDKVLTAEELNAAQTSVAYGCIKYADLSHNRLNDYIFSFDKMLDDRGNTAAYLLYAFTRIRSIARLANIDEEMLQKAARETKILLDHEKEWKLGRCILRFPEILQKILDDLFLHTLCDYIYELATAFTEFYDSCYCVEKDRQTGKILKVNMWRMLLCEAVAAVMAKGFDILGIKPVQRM
Chain of Splicing factor U2AF 35 kDa subunit (Homo sapiens) (Q01081 whole entry): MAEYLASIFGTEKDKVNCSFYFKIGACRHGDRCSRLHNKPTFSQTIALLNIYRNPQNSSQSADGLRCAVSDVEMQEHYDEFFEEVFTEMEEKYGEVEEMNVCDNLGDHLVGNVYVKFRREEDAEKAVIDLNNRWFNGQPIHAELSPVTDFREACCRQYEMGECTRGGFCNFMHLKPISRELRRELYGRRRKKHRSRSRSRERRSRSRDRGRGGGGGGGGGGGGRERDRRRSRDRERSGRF
Chain of Transcriptional repressor p66-alpha (Homo sapiens) (Q86YP4 whole entry): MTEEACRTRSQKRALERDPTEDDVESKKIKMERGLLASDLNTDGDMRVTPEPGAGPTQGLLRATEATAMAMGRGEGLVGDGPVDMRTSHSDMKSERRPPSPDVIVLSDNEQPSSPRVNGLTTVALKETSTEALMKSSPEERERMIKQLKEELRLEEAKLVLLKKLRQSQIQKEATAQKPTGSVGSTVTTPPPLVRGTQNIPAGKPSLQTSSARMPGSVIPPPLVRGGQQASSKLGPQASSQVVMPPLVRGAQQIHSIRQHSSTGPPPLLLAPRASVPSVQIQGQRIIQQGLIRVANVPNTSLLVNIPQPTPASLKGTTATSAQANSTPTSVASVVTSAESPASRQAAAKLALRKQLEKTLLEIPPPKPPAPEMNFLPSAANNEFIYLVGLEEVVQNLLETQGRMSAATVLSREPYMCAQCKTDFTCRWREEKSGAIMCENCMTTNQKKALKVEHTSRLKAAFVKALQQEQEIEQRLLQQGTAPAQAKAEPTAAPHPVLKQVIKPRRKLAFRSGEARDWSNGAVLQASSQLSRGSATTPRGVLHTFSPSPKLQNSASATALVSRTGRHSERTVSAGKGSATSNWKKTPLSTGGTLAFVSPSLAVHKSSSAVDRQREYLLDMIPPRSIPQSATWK
Chain of Protein FAM136A (Homo sapiens) (Q96C01 whole entry): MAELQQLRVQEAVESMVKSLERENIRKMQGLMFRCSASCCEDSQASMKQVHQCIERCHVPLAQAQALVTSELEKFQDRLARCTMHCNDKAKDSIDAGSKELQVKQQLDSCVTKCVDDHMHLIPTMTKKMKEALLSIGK
Chain of Aminoacyl tRNA synthase complex-interacting multifunctional protein 2 (Homo sapiens) (Q13155 whole entry, one chain of several): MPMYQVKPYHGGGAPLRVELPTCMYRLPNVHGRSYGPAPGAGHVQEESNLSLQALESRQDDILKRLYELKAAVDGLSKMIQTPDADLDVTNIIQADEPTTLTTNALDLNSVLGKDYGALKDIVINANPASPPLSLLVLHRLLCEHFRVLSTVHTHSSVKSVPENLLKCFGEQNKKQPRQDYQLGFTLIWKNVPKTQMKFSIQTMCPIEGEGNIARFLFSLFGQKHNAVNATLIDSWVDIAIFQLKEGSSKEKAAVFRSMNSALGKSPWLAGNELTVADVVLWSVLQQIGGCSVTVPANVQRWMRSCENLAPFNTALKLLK

Cc1ccc(C(=O)Nc2cccc(C(F)(F)F)c2)cc1Nc1nc(-c2cccnc2)nc2nn(C)cc12
IC50 [1]: > 50 µM
ED50 [2]: 6.17 µM
ED50 [3]: 0.0495 µM
ED50 [4]: 0.0716 µM
ED50 [5]: 0.0914 µM
ED50 [6]: 211 µM
ED50 [7]: 0.00871 µM
ED50 [8]: 0.0659 µM
ED50 [9]: 79.4 µM
ED50 [10]: 0.512 µM
ED50 [11]: 0.961 µM
ED50 [12]: 10.5 µM
ED50 [13]: 51200 µM
ED50 [14]: 1.21 µM
ED50 [15]: 4.63 µM
ED50 [16]: 43 µM
ED50 [17]: 0.041 µM
ED50 [18]: 0.841 µM
ED50 [19]: 0.495 µM
ED50 [20]: 0.0534 µM
ED50 [21]: 0.409 µM
ED50 [22]: 0.048 µM
ED50 [23]: 0.0305 µM
ED50 [24]: 0.0901 µM
ED50 [25]: 9.72 µM
ED50 [26]: 233 µM
ED50 [27]: 0.0135 µM
ED50 [28]: 9.78 µM
ED50 [29]: 214 µM
ED50 [30]: 7 µM
ED50 [31]: 0.443 µM
ED50 [32]: 0.0418 µM
ED50 [33]: 0.00449 µM
ED50 [34]: 6.99 µM
ED50 [35]: 6.74 µM
ED50 [36]: 4.91 µM
ED50 [37]: 0.131 µM
ED50 [38]: 0.00526 µM
ED50 [39]: 0.0908 µM
ED50 [40]: 0.0279 µM
ED50 [41]: 0.0576 µM
ED50 [42]: 0.0539 µM
ED50 [43]: 7.76 µM
ED50 [44]: 0.137 µM
ED50 [45]: 0.0559 µM
ED50 [46]: 0.0544 µM

Cc1ccc(C(=O)Nc2cccc(C(F)(F)F)c2)cc1Nc1nc(-c2cccnc2)nc2c1cnn2C
IC50 [1]: > 50 µM
ED50 [2]: 0.58 µM
ED50 [3]: 0.00534 µM
ED50 [4]: 3.97 µM
ED50 [5]: 0.0552 µM
ED50 [6]: 5.13 µM
ED50 [7]: 3.55 µM
ED50 [8]: 0.55 µM
ED50 [9]: 24.6 µM
ED50 [10]: 24.5 µM
ED50 [11]: 5.49 µM
ED50 [12]: 3.63 µM
ED50 [13]: 1.3 µM
ED50 [14]: 0.0324 µM
ED50 [15]: 0.043 µM
ED50 [16]: 4.85 µM
ED50 [17]: 3.46 µM
ED50 [18]: 56.5 µM
ED50 [19]: 29.6 µM
ED50 [20]: 3.71 µM
ED50 [21]: 19.1 µM
ED50 [22]: 55500 µM
ED50 [23]: 0.421 µM
ED50 [24]: 0.0583 µM
ED50 [25]: 0.0459 µM
ED50 [26]: 0.0636 µM
ED50 [27]: 0.0134 µM
ED50 [28]: 10.4 µM
ED50 [29]: 2.11 µM
ED50 [30]: 0.0395 µM
ED50 [31]: 0.886 µM
ED50 [32]: 0.664 µM
ED50 [33]: 14.9 µM
ED50 [34]: 2.24 µM
ED50 [35]: 430 µM
ED50 [36]: 4.18 µM
ED50 [37]: 1.18 µM
ED50 [38]: 11.9 µM
ED50 [39]: 1.61 µM
ED50 [40]: 1.94 µM
ED50 [41]: 0.00531 µM
ED50 [42]: 5.04 µM
ED50 [43]: 10.4 µM
ED50 [44]: 0.000531 µM
ED50 [45]: 0.00899 µM
ED50 [46]: 2.9 µM
